# Values of other authors in patent US20080234352A1, “Controlled release solid dispersions” (EGALET A/S, priority 2001, published 2008).
# Like-named read-outs stand apart in the source and are kept apart here.
# Legend:
# [1] = not given; remark: listed apart in the source
SMILES,pKa (pKa2),pKa (pKa3),pKa (pKa1),also measured
"O=C(O)CC(C(=O)O)C(CC(=O)O)C(=O)O (stereo not drawn) [Butane-1,2,3,4-tetracarboxylic]",4.38,5.45,,pKa (pKa4): 6.63
"O=C(O)c1cccc(C(=O)O)c1C(=O)O [Benzene-1,2,3-tricarboxylic (hemimellitic)]",4.25,5.87,2.98,
COc1cc2c(cc1OC)[C@@]13CCN4CC5=CCO[C@H]6CC(=O)N2[C@H]1[C@H]6[C@H]5C[C@H]43.O.O.O.O [Brucine tetrahydrate],7.95,,2.30,
"CC(CC(=O)O)(CC(=O)O)C(=O)O [2-Methylpropane-1,2,3-triscarboxylic]",5.02,7.20,,
"O=C(O)CC1(CC(=O)O)CCCC1 [I,I-Cyclopentanediacetic, I,I-Cyclopentanediacetic (3,3 tetramethylene glutaric acid)]",6.70,,3.82,
"O=C(O)c1cc(C(=O)O)c(C(=O)O)cc1C(=O)O [Benzene-1,2,4,5-tetracarboxylic (pyromellitic)]",3.13,4.44,2.43,pKa (pKa4): 5.61
O=C(O)c1ccccc1C(=O)O [Phthalic],,,,pKa (no step given): 2.90
"O=S(=O)(O)CCCN1CCN(CCO)CC1 [EPPS, 4-(2-Hydroxyethyl)-I-piperazinepropane sulfonic acid]",,,,pKa (no step given): 8.00
CN [Methylamine],,,,pKa (no step given): 10.64
"O=S(=O)(O)CCCNC(CO)(CO)CO [TAPS, N-Tris(hydroxymethyl)methyl-2-aminopropane suifonic acid]",8.40,,,
"O=S(=O)(O)CCN1CCN(CCS(=O)(=O)O)CC1 [PIPES, 1,4-Piperazinebis-(ethanesulfonic acid)]",,3.00,,pKa (pKa4): 6.8
C=C(CC(=O)O)C(=O)O [Itaconic],5.55,,3.84,
O=C(O)CC(O)C(=O)O (stereo not drawn) [Malic],5.05,,3.40,
COc1ccccc1OCCNCC(O)COc1cccc2[nH]c3ccccc3c12 (racemic) [Carvedilol],,,,"alpha-mediated vasodilatory effects (decreased peripheral resistance and blood pressure) evident within ([1]; administration of an IR formulation): ≤ 30 min; binding to plasma ([1]; in vivo): highly bound; dose excreted unchanged in the urine ([1]; in vivo): less than 2%; dose linearity range ([1]; literature): 6.25 to 50 mg; time to peak plasma concentrations ([1]; oral administration): one to two; absorption in the large intestine, share of the total absorption ([1]; timed-release capsules, study by Nolte et al): approximately 10%"
"O=S(=O)(O)CCCNC1CCCCC1 [CAPS, 3-Cyclohexylamino-I-propanesulfonic acid]",10.40,,,
CN(C)C [Trimethylamine],,,,pKa (no step given): 9.74
"O=C(O)c1cc(C(=O)O)cc(C(=O)O)c1 [Benzene-1,3,5-tricarboxylic (trimesic)]",3.98,4.85,3.16,
O=C(O)c1cc(C(=O)O)c(C(=O)O)c(C(=O)O)c1C(=O)O [Benzenepentacarboxylic],2.95,3.94,,pKa (pKa4): 5.07; pKa (pKa5): 6.25
O=C(O)C(O)c1ccccc1 (stereo not drawn) [Mandelic],,,,pKa (no step given): 3.36
